Here are results for 50 molecules from ChEMBL document CHEMBL1201862, “PubChem BioAssay data set” (2004).

Experiment [1] concerns H9c2. Kind of experiment: cells. In kind it is functional, cell-based. Conditions: Rattus norvegicus, H9c2, Myocardium.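 Note: confirmatory concentration-response retest of ultra-high-throughput screening hits for modulation of myocardial damage; cell death induced by hydrogen peroxide oxidative stress; compound pretreatment for 60 min then peroxide exposure for 2 h; potency is for protecting the cells against peroxide damage rather than for killing them.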
Experiment [2] in a line: Luminescence Cell-Based Dose Confirmation HTS to Identify Inhibitors of Platelet Dense Granule Release. [Related pubchem assays: 1663 (Primary HTS), 1678 (Summary of Project)]. Format: functional.
For experiment [3], the target named is Luciferin 4-monooxygenase (Photinus pyralis, UniProt P08659). Kind of experiment: firefly luciferase enzyme inhibitors, dose response, biochemical, luminescence (AID 1891).
For experiment [4], the target named is T1, Ubiquitin-conjugating enzyme E2 N (Homo sapiens, UniProt P61088).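 Note: Dose-response confirmation in a TR-FRET assay detecting UBC13-driven polyubiquitin chain formation, inhibition measured.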
T1 sequence (P61088 whole entry): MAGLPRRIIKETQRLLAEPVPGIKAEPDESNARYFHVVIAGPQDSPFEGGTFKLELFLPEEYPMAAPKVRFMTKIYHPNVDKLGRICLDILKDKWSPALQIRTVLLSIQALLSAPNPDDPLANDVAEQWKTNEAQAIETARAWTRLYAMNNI
In kind it is functional.

The target of experiment [5] is Cytochrome P450 2D6 (Homo sapiens, UniProt P10635).
Experiment [6] addresses Cytochrome P450 2C19 (Homo sapiens, UniProt P33261). Kind of experiment: Cytochrome panel assay with activity outcomes. Panel member name: p450-cyp2c19 Compounds with AC50 equal or less than 10 uM are considered active. In kind it is functional. Particulars: read-out: AC50.
The target in experiment [7] is Cytochrome P450 2C9 (Homo sapiens, UniProt P11712).
For experiment [8], the target named is Nonstructural protein 1 (Influenza A virus, UniProt Q194T2). In kind it is functional, Influenza A virus (A/California/07/2009(H1N1)).
The target in experiment [9] is T2, Calpain-2 catalytic subunit (Sus scrofa, UniProt P43367).
T2 sequence (P43367 whole entry): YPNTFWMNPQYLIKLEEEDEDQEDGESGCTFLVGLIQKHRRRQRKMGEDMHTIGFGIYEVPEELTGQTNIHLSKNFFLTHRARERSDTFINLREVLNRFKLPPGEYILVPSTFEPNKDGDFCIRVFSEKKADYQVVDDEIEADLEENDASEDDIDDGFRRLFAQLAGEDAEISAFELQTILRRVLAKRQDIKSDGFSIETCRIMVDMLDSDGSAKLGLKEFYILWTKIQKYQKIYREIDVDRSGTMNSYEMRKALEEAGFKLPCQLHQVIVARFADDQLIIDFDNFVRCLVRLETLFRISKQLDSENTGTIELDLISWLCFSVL
Kind of experiment: pig calpain II inhibitor potency, dose response, biochemical, fluorogenic peptide substrate (AID 1420). Format: functional.

The test system of experiment [10] is Vero. The experiment in a line: cells. Format: functional. Conditions: Chlorocebus sabaeus.
Experiment [11] in a line: microbe, parasite or virus in culture. In kind it is functional. Particulars: Mycobacterium tuberculosis.
Experiment [12] in a line: cells. Format: functional.
Experiment [13] has as its target Cytochrome P450 3A4 (Homo sapiens, UniProt P08684).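 Note: CYP3A4 tested as one member of a cytochrome P450 panel screen.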
In experiment [14] the target is T3, Cytochrome P450 1A2 (Homo sapiens, UniProt P05177).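 Note: PubChem cytochrome P450 panel assay, CYP1A2 panel member.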
T3 sequence (P05177 whole entry): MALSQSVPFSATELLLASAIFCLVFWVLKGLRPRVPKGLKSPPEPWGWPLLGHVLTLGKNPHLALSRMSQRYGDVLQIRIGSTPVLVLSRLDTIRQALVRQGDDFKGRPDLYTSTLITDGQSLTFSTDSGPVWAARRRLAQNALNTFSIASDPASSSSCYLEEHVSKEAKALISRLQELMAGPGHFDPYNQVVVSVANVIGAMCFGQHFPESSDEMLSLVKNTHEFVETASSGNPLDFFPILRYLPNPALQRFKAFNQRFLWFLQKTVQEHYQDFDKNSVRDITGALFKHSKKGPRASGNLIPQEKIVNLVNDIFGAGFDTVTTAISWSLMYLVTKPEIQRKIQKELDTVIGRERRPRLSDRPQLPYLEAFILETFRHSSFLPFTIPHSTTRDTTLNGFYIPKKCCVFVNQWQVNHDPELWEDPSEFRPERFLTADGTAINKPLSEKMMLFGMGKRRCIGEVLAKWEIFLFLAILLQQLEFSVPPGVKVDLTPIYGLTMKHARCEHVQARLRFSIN

The nature of experiment [15]: P. falciparum Dd2 growth inhibitors, dose response, SYBR Green, cherry-picked samples (AID 1159567). Format: functional, cell-based.

Activity calls are given as the source filed them.

Chain of Cytochrome P450 2C9 (P11712 whole entry): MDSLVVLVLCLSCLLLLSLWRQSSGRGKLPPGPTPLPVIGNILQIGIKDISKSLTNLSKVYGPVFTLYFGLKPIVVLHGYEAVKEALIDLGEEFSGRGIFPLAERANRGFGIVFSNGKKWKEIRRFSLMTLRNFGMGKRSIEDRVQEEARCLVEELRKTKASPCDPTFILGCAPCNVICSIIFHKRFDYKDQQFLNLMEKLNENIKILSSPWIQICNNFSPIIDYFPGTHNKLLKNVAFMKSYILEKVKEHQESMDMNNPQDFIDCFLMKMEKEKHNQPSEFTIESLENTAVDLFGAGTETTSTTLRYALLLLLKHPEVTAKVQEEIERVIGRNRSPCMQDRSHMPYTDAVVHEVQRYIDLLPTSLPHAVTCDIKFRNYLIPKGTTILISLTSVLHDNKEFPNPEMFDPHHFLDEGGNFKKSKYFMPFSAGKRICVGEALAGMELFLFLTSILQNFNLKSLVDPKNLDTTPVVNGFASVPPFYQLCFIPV
Chain of Cytochrome P450 2C19 (P33261 whole entry): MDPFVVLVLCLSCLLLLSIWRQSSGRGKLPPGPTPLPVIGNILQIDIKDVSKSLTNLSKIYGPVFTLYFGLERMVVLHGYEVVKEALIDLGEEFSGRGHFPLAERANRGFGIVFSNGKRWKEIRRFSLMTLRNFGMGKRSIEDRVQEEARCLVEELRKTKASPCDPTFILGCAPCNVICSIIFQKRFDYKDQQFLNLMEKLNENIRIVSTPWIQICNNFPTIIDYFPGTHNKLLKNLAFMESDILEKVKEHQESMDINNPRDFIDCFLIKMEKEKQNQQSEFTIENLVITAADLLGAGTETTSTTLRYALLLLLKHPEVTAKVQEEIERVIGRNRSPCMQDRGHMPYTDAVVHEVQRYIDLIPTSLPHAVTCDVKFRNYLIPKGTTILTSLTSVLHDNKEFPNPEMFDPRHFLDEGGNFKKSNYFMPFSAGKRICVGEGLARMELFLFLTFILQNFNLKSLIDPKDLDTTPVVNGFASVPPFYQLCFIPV
Chain of Nonstructural protein 1 (Q194T2 whole entry): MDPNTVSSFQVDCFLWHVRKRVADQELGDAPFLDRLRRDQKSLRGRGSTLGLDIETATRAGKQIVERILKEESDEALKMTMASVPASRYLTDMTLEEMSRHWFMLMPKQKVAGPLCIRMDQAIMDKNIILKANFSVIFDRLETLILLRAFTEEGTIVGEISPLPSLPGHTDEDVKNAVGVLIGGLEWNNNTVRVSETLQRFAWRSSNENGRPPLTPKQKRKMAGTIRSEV
Chain of Cytochrome P450 2D6 (P10635 whole entry): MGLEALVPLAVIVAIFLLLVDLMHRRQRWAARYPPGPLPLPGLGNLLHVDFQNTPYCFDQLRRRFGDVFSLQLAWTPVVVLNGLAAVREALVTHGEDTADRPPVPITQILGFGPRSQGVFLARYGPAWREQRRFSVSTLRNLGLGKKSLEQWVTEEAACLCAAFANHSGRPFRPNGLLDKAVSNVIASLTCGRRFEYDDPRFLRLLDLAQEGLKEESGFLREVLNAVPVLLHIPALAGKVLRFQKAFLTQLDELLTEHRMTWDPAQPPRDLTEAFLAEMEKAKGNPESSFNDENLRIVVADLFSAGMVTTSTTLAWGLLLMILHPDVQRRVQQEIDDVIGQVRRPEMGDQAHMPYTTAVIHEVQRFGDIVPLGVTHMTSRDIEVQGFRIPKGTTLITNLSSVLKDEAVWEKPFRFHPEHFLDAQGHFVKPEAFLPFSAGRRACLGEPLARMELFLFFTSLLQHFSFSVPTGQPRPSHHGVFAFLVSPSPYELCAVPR
Chain of Luciferin 4-monooxygenase (P08659 whole entry): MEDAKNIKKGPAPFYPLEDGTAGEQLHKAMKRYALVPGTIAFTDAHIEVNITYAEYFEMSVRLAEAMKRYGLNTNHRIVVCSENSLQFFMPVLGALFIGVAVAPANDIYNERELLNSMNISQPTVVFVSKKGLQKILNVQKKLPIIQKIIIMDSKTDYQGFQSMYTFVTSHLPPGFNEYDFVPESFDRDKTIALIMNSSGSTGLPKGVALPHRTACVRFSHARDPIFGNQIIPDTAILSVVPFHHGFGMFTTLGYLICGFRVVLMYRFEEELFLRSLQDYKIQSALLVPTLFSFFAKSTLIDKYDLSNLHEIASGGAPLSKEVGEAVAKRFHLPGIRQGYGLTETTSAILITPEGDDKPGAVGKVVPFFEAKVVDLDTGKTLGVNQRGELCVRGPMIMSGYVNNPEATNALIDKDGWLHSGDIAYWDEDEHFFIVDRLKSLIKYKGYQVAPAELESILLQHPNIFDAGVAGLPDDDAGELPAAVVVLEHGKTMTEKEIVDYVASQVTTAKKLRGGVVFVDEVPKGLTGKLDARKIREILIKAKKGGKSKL
Chain of Cytochrome P450 3A4 (P08684 whole entry): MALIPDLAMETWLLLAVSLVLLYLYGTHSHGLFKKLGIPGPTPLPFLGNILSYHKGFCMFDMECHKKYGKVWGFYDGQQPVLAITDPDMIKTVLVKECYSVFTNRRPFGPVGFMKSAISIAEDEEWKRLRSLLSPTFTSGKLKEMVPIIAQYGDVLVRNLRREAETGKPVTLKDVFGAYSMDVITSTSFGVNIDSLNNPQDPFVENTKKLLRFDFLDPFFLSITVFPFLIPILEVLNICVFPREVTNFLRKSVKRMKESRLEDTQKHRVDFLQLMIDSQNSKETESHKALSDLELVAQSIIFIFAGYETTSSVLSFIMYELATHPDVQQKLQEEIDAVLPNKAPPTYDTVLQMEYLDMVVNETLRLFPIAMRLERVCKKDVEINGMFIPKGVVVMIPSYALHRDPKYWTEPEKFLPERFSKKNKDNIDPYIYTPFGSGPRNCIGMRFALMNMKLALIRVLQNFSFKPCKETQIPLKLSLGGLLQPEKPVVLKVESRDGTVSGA

In the case of `O=C1c2ccccc2NC(c2ccc([N+](=O)[O-])cc2)N1O` (stereo unspecified), the IC50 in experiment [1] is 10.4 µM (active). `CCCc1cc(=O)oc2c(C)c(OCC(=O)Nc3ccc(CN4CCOCC4)cc3)ccc12`: the EC50 in experiment [2] and in experiment [3] was > 112 µM (not active) each time. For `CCCC[C@@H]1CN=C(N)N1CCc1cc(C(F)(F)F)cc(C(F)(F)F)c1`, in experiment [4], the IC50 is > 20 µM (inactive). Regarding `COc1cc(O)ccc1C=O`, the EC50 in experiment [2] and in experiment [3] was > 112 µM (not active) throughout.

Consider `CCOC(=O)CNC(=O)CSc1nc2cc(Br)c(C)nc2[nH]1`, for which the half-maximal inhibitory concentration (IC50) in [1] is 24 µM (active). On to `COc1ccc(Oc2ncc3nc(C)c(=O)n(-c4ccccc4)c3n2)cc1`, for which the results for the half-maximal activity concentration (AC50) in [5], in experiment [6] and in [7] were 39.8 µM (inconclusive), 39.8 µM (inconclusive) and 10 µM (inconclusive), respectively. Turning to `COc1cccc(C2CC(C(F)(F)F)n3ncc(C(=O)O)c3N2)c1` (stereo unspecified), the EC50 in [2] and in experiment [3] was > 112 µM (not active) in each case. Regarding `CCn1c(SCC(=O)Nc2ccccc2N2CCCCC2)nc2c1c(=O)n(C)c(=O)n2C`, in [1], the IC50 is > 79 µM (inactive).

As for `COc1ccc(-c2nn3c(-c4ccccc4)nnc3s2)cc1OC`, the IC50 in experiment [1] was > 79 µM (inactive).

Consider `CCOC(=O)c1ccc(NC(=O)CCc2ccc(C)o2)cc1`, for which the EC50 in experiment [2] and in [3] was > 112 µM (not active) throughout. Take `CCCCNc1c([N+](=O)[O-])cc(C)cc1[N+](=O)[O-]`: the IC50 in experiment [8] was 27.1 µM (active).

As to `COc1ccc(NC(=O)C2CCCN(c3nn4c(=O)cc(C)nc4s3)C2)c(OC)c1` (stereo unspecified), the EC50 in experiment [2] and in [3] was > 112 µM (not active) in each case.

In the case of `C[C@@H]1CC[C@H]2C(=O)O[C@H](CN=[N+]=[N-])CN2[C@@H]1c1ccc(Br)cc1`, the concentration at half-maximal activity (AC50) in experiment [5] was 7.94 µM (inconclusive); in experiment [7], 3.16 µM (inconclusive). In the case of `COC(=O)C1=C(C)N(Cc2ccccc2)C(NCc2cc(OC)c(OC)c(OC)c2)=N[C@H]1CCc1ccccc1`, the IC50 in experiment [4] is > 20 µM (inactive). With `O=C(Nc1ccc2ccccc2c1)C(=O)C1C(=O)Nc2ccccc21` (stereo unspecified), in [9], the half-maximal inhibitory concentration (IC50) is < 0.4 µM (not active). In the case of `Cc1nn2c(NCCCN(C)C)c3c(nc2c1-c1ccccc1)CCCC3`, in experiment [10], the CC50 is > 25 µM (active). As for `CN(C)c1ccc(N=Nc2ccccc2C(=O)OCC(=O)N(C)c2ccccc2)cc1`, the IC50 in experiment [8] is 21.2 µM (active). On the same count and under the same terms, for `CNc1nc(NN)nc(Nc2ccccc2)n1` the value was 15 µM (active). Take `CC(=O)NC(c1cc(Cl)c2ccccc2c1O)C(C)C` (stereo unspecified): the IC50 in [4] is > 20 µM (inactive).

For the molecule `c1ccc2c(C3=NN=C(NC4CCCCC4)SC3)c[nH]c2c1`, the CC50 in experiment [11] is > 40 µM (active). Also, the 50% inhibitory concentration (IC50) in [9] is 6.76 µM (not active).

For `CCCCNC(=S)NC(=O)c1ccc(Cl)cc1Cl`, the half-inhibitory concentration (IC50) in experiment [9] is 4.25 µM (not active).

In the case of `COc1cc2c(cc1OC)CN(CC(=O)Nc1ccccc1C#N)CC2`, the IC50 in experiment [1] was 34.2 µM (inactive). For `Cc1c(NC(=O)CSC(=S)N2CCCC2)c(=O)n(-c2ccccc2)n1C`, the half-maximal effective concentration (EC50) is 25.5 µM (active) in experiment [2] and > 112 µM (not active) in [3].

As for `CC(=O)Nc1ccc(NC(=O)Cc2ccc(S(=O)(=O)N3CCCCC3)s2)cc1`, the IC50 in experiment [9] is on record as 2.64 µM (not active). For `CCOC(=O)N1CCN(C(=O)CSc2nc3ccccc3c(=O)n2-c2ccccc2)CC1`, in experiment [1], the IC50 was 19.5 µM (active). On to `O=C(OCc1ccc([N+](=O)[O-])cc1)c1ccc2ccccc2n1`, for which the 50% inhibitory concentration (IC50) in experiment [12] is 18 µM (active). Turning to `Cc1ccnc(N2C(=O)C3C4CC(C(Br)C4Br)C3C2=O)c1` (stereo unspecified), the AC50 is 25.1 µM (inconclusive) in experiment [13] and 17.8 µM (inconclusive) in [7]. Turning to `CN(Cc1cc(C(C)(C)C)cc(Br)c1O)Cc1cc(C(C)(C)C)cc(Br)c1O`, the values for the AC50 in [5] and in [7] were 2.51 µM (inconclusive) and 3.98 µM (inconclusive), respectively. With `CCCCOc1ccc(-c2nnn(C(C)C(=O)OCC)n2)cc1` (stereo unspecified), the IC50 in experiment [12] was 2.83 µM (active). Regarding `C/C=C1\COC(C(=O)NCCN2CCCC2)(C(F)(F)F)C=C1C=C1CCCCC1` (stereo unspecified), in experiment [4], the IC50 is > 20 µM (inactive). Take `COc1ccc(CNC(=O)N[C@@H](CC(C)C)C(=O)O)cc1OC`: the EC50 in experiment [2] and in experiment [3] was > 112 µM (not active) each time. Turning to `Cc1ccc(S(=O)(=O)N2CCC(C(=O)NCc3cccnc3)CC2)cc1`, the concentration at half-maximal activity (AC50) in [5] is 12.6 µM (inconclusive); in experiment [6], 17.8 µM (inconclusive); in experiment [7], 6.31 µM (inconclusive).

Consider `COC(=O)/C=C/CSC1=N/C(=C/c2ccc(-n3cncn3)cc2)C(=O)N1`, for which the AC50 in experiment [7] is 11.2 µM (inconclusive).

`C#CCOCCOCCOCCNc1nc(N2CCN(C(=O)[C@H]([C@@H](C)CC)n3cc([C@@H](N)CC(C)C)nn3)CC2)nc(N2CCN(C(=O)[C@H](Cc3ccc(O)cc3)n3cc([C@@H](N)C(C)CC)nn3)CC2)n1` (stereo partly specified): in [4], the IC50 was > 20 µM (inactive). Take `COc1[nH]nc(C(=O)Nc2cc(F)ccc2C)c1[N+](=O)[O-]`: the IC50 in experiment [12] is > 50 µM (active).

As for `CCC(C(=O)OCC(=O)Nc1ccc(Cl)c(S(=O)(=O)N(C)C)c1)c1ccccc1` (stereo unspecified), in experiment [9], the IC50 is reported as 13.3 µM (not active). Turning to `C=CCn1c(S)nnc1C(C)NC(=O)c1ccccc1` (stereo unspecified), the concentration at half-maximal activity (AC50) in experiment [7] was 17.8 µM (inconclusive).

Take `O=C(CC1Oc2ccccc2NC1=O)NC1CCCC1` (stereo unspecified): the EC50 in experiment [2] and in experiment [3] was > 112 µM (not active) in each case. Take `COc1cc(C#Cc2c(-c3cncn3C)n(C)c3ccc(Br)cc23)cc(OC)c1`: the IC50 in [4] was > 20 µM (inactive). For `CC(=O)Nc1ccc(OCC(O)Cn2cnc3ccccc32)cc1` (stereo unspecified), the AC50 in experiment [5] is 0.00562 µM (inconclusive); in experiment [7], 0.0631 µM (inconclusive). As to `CCN(CC(=O)Nc1ccc2c(c1)OCCO2)C(=O)c1cccc(S(=O)(=O)N2CCOCC2)c1`, the figures for the AC50 in [6], in experiment [7] and in experiment [14] were 22.4 µM (inconclusive), 11.2 µM (inconclusive) and 12.6 µM (inconclusive), respectively.

Consider `Oc1ccc(Cl)cc1/C=N/c1ccc(Br)cc1`, for which, in experiment [1], the IC50 is 22.3 µM (active). On to `NC(=O)c1ccccc1/N=C/c1ccccn1`, for which the IC50 in [1] was 22.4 µM (active). For `COc1ccc(C/N=C(\C#N)C2=C(O)c3ccccc3C2=O)cc1`, the IC50 in experiment [12] was 45.7 µM (active). Regarding `O=C(N/N=C/c1ccccn1)c1ccc(NC(=O)c2ccc(F)cc2)cc1`, the 50% effective concentration (EC50) in experiment [2] and in experiment [3] was > 112 µM (not active) each time. Take `Cc1ccc(/C=N/NC(=O)CSc2nc3nc(C)cc(C)n3n2)cc1`: the AC50 in [7] was 22.4 µM (inconclusive); in experiment [14], 4.47 µM (inconclusive).

Take `Cc1cc(C(=O)N/N=C/c2ccc(OC(=O)c3ccccc3Br)cc2)[nH]n1`: the IC50 in experiment [12] was 41.6 µM (active).

With `CC(=O)Nc1nc(CCl)cs1`, the IC50 in experiment [9] is > 50 µM (not active). On to `COc1ccc(-c2ccc3c(c2)[C@H]2[C@H](CCN2C(=O)NC2CCCC2)[C@H](CO)N3C)cc1`, for which, in experiment [15], the AC50 is 5.37 µM (active).

Regarding `O=C(Nc1ccccc1F)N1CC(=O)N2[C@H](CO)[C@@H](c3ccc(-c4ccccc4)cc3)[C@H]2C1`, in experiment [15], the AC50 was 14.5 µM (active).
